Reference: paper PMC3961306, “Comparison of the Cancer Gene Targeting and Biochemical Selectivities of All Targeted Kinase Inhibitors Approved for Clinical Use” (PLoS ONE, 2014)
pIC50: −log10 of the molar value. Like-named read-outs stand apart in the source and are kept apart here. One block for each compound: values may come before it.

Tested on: forty-four human cancer cell lines
Assay: Cell proliferation assay (ATPlite, 72 hours) in the 44 cell line Oncolines panel
Format: cell-based
[1] = Homo sapiens, 769-P, cell line 769-P, read-out: cell panel IC50, 769-P
[2] = Homo sapiens, 786-0, cell line 786-0, read-out: cell panel IC50, 786-0
[3] = Homo sapiens, A 172, read-out: cell panel IC50, A-172, cell line A-172
[4] = Homo sapiens, A204, cell line A-204, read-out: cell panel IC50, A-204
[5] = Homo sapiens, A498, read-out: cell panel IC50, A-498, cell line A-498
[6] = Homo sapiens, A549, read-out: cell panel IC50, A-549, cell line A-549
[7] = Homo sapiens, A-375, cell line A375, read-out: cell panel IC50, A375
[8] = Homo sapiens, A-427, read-out: cell panel IC50, A-427, cell line A-427
[9] = Homo sapiens, ACHN, cell line ACHN, read-out: cell panel IC50, ACHN
[10] = Homo sapiens, AN3-CA, cell line AN3 CA, read-out: cell panel IC50, AN3 CA
[11] = Homo sapiens, AU565, read-out: cell panel IC50, AU-565, cell line AU-565
[12] = Homo sapiens, BT-20, cell line BT-20, read-out: cell panel IC50, BT-20
[13] = Homo sapiens, BT-549, read-out: cell panel IC50, BT-549, cell line BT-549
[14] = Homo sapiens, BXPC-3, cell line BxPC-3, read-out: cell panel IC50, BxPC-3
[15] = Homo sapiens, C-33-A, cell line C-33 A, read-out: cell panel IC50, C-33 A
[16] = Homo sapiens, CAL-27, cell line CAL 27, read-out: cell panel IC50, CAL 27
[17] = Homo sapiens, CCRF-CEM, cell line CCRF-CEM, read-out: cell panel IC50, CCRF-CEM
[18] = Homo sapiens, DLD-1, cell line DLD-1, read-out: cell panel IC50, DLD-1
[19] = Homo sapiens, FaDu, cell line FaDu, read-out: cell panel IC50, FaDu
[20] = Homo sapiens, HCT-15, cell line HCT-15, read-out: cell panel IC50, HCT-15
[21] = Homo sapiens, HCT-116, read-out: cell panel IC50, HCT-116, cell line HCT-116
[22] = Homo sapiens, Hs-578T, cell line Hs 578T, read-out: cell panel IC50, Hs 578T
[23] = Homo sapiens, Jurkat E6.1, cell line Jurkat E6.1, read-out: cell panel IC50, Jurkat E6.1
[24] = Homo sapiens, K562, read-out: cell panel IC50, K-562, cell line K-562
[25] = Homo sapiens, LS174T, read-out: cell panel IC50, LS 174T, cell line LS 174T
[26] = Homo sapiens, LoVo, cell line LoVo, read-out: cell panel IC50, LoVo
[27] = Homo sapiens, MG-63, cell line MG-63, read-out: cell panel IC50, MG-63
[28] = Homo sapiens, MOLT-4, cell line MOLT-4, read-out: cell panel IC50, MOLT-4
[29] = Homo sapiens, MeWo, cell line MeWo, read-out: cell panel IC50, MeWo
[30] = Homo sapiens, NCI-H82, cell line NCI-H82, read-out: cell panel IC50, NCI-H82
[31] = Homo sapiens, NCI-H460, cell line NCI-H460, read-out: cell panel IC50, NCI-H460
[32] = Homo sapiens, OVCAR-3, cell line OVCAR-3, read-out: cell panel IC50, OVCAR-3
[33] = Homo sapiens, RPMI-7951, cell line RPMI-7951, read-out: cell panel IC50, RPMI-7951
[34] = Homo sapiens, SHP77, cell line SHP-77, read-out: cell panel IC50, SHP-77
[35] = Homo sapiens, SK-N-AS, cell line SK-N-AS, read-out: cell panel IC50, SK-N-AS
[36] = Homo sapiens, SW48, cell line SW48, read-out: cell panel IC50, SW48
[37] = Homo sapiens, SW480, cell line SW480, read-out: cell panel IC50, SW480
[38] = Homo sapiens, SW-620, cell line SW620, read-out: cell panel IC50, SW620
[39] = Homo sapiens, U2OS, cell line U-2 OS, read-out: cell panel IC50, U-2 OS
[40] = Homo sapiens, U-87 MG, 72 h, U-87 MG cell line, ATPlite, 72 hours, read-out: IC50 in cell proliferation assay (table S5 cellpanel data)
[41] = Homo sapiens, cell line J82, read-out: cell panel IC50, J82
[42] = Homo sapiens, cell line PA-1, read-out: cell panel IC50, PA-1
[43] = Homo sapiens, cell line SJCRH30, read-out: cell panel IC50, SJCRH30
[44] = Homo sapiens, cell line SR, read-out: cell panel IC50, SR

Difference between the average IC50 in the cell panel and the most potent IC50 (44 cell line panel, Figure 2D): 10 fold | pIC50 [1]: 7.74 | pIC50 [2]: 7.82 | pIC50 [3]: 8.33 | pIC50 [4]: 5.68 | pIC50 [5]: 8.22 | pIC50 [6]: 8.05 | pIC50 [7]: 7.89 | pIC50 [8]: 7.96 | pIC50 [9]: 8.00 | pIC50 [10]: 7.89 | pIC50 [11]: 7.74 | pIC50 [12]: 7.19 | pIC50 [13]: 6.61 | pIC50 [14]: 7.55 | pIC50 [15]: 7.85 | pIC50 [16]: 8.22 | pIC50 [17]: 8.00 | pIC50 [18]: 7.72 | pIC50 [19]: 7.68 | pIC50 [20]: 7.51 | pIC50 [21]: 6.66 | pIC50 [22]: 8.28 | pIC50 [23]: 7.74 | pIC50 [24]: 7.80 | pIC50 [25]: 8.00 | pIC50 [26]: 8.22 | pIC50 [27]: 8.25 | pIC50 [28]: 8.10 | pIC50 [29]: 7.96 | pIC50 [30]: 7.55 | pIC50 [31]: 7.07 | pIC50 [32]: 7.10 | pIC50 [33]: 8.15 | pIC50 [34]: 7.18 | pIC50 [35]: 8.22 | pIC50 [36]: 8.00 | pIC50 [37]: > 8.50 | pIC50 [38]: 8.40 | pIC50 [39]: 7.28 | pIC50 [40]: 8.00 | pIC50 [41]: 7.96 | pIC50 [42]: 8.32 | pIC50 [43]: 7.57 | pIC50 [44]: 7.92
Structure (SMILES): CC(C)C[C@H](NC(=O)[C@H](Cc1ccccc1)NC(=O)c1cnccn1)B(O)O [bortezomib]

Structure (SMILES): N.N.[Cl][Pt][Cl] [cisplatin]
pIC50 (U-87 MG cell line, ATPlite, 72 hours, read-out: IC50 in cell proliferation assay (table S5 cellpanel data)): < 4.50 | pIC50 (cell line 769-P, read-out: cell panel IC50, 769-P): < 4.50 | pIC50 (cell line 786-0, read-out: cell panel IC50, 786-0): 4.82 | pIC50 (cell line A375, read-out: cell panel IC50, A375): 4.88 | pIC50 (cell line A-204, read-out: cell panel IC50, A-204): < 4.50 | pIC50 (cell line ACHN, read-out: cell panel IC50, ACHN): 4.87 | pIC50 (cell line AN3 CA, read-out: cell panel IC50, AN3 CA): 4.56 | pIC50 (cell line BT-20, read-out: cell panel IC50, BT-20): < 4.50 | pIC50 (cell line BxPC-3, read-out: cell panel IC50, BxPC-3): 4.70 | pIC50 (cell line C-33 A, read-out: cell panel IC50, C-33 A): 4.86 | pIC50 (cell line CAL 27, read-out: cell panel IC50, CAL 27): 5.21 | pIC50 (cell line CCRF-CEM, read-out: cell panel IC50, CCRF-CEM): 4.98 | pIC50 (cell line DLD-1, read-out: cell panel IC50, DLD-1): < 4.50 | pIC50 (cell line FaDu, read-out: cell panel IC50, FaDu): 4.56 | pIC50 (cell line HCT-15, read-out: cell panel IC50, HCT-15): < 4.50 | pIC50 (cell line Hs 578T, read-out: cell panel IC50, Hs 578T): < 4.50 | pIC50 (cell line J82, read-out: cell panel IC50, J82): 5.00 | pIC50 (cell line Jurkat E6.1, read-out: cell panel IC50, Jurkat E6.1): 5.31 | pIC50 (cell line LoVo, read-out: cell panel IC50, LoVo): < 4.50 | pIC50 (cell line MG-63, read-out: cell panel IC50, MG-63): 5.07 | pIC50 (cell line MOLT-4, read-out: cell panel IC50, MOLT-4): 5.09 | pIC50 (cell line MeWo, read-out: cell panel IC50, MeWo): < 4.50 | pIC50 (cell line NCI-H82, read-out: cell panel IC50, NCI-H82): 4.70 | pIC50 (cell line NCI-H460, read-out: cell panel IC50, NCI-H460): 5.00 | pIC50 (cell line OVCAR-3, read-out: cell panel IC50, OVCAR-3): < 4.50 | pIC50 (cell line PA-1, read-out: cell panel IC50, PA-1): 5.85 | pIC50 (cell line RPMI-7951, read-out: cell panel IC50, RPMI-7951): 5.00 | pIC50 (cell line SHP-77, read-out: cell panel IC50, SHP-77): < 4.50 | pIC50 (cell line SJCRH30, read-out: cell panel IC50, SJCRH30): < 4.50 | pIC50 (cell line SK-N-AS, read-out: cell panel IC50, SK-N-AS): < 4.50 | pIC50 (cell line SR, read-out: cell panel IC50, SR): 5.35 | pIC50 (cell line SW48, read-out: cell panel IC50, SW48): < 4.50 | pIC50 (cell line SW480, read-out: cell panel IC50, SW480): < 4.50 | pIC50 (cell line SW620, read-out: cell panel IC50, SW620): < 4.50 | pIC50 (cell line U-2 OS, read-out: cell panel IC50, U-2 OS): < 4.50 | pIC50 (read-out: cell panel IC50, A-172, cell line A-172): < 4.50 | pIC50 (read-out: cell panel IC50, A-427, cell line A-427): < 4.50 | pIC50 (read-out: cell panel IC50, A-498, cell line A-498): 4.63 | pIC50 (read-out: cell panel IC50, A-549, cell line A-549): 4.81 | pIC50 (read-out: cell panel IC50, AU-565, cell line AU-565): 4.82 | pIC50 (read-out: cell panel IC50, BT-549, cell line BT-549): 5.02 | pIC50 (read-out: cell panel IC50, HCT-116, cell line HCT-116): < 4.50 | pIC50 (read-out: cell panel IC50, K-562, cell line K-562): < 4.50 | pIC50 (read-out: cell panel IC50, LS 174T, cell line LS 174T): 5.07

pIC50 [1]: 8.00 | pIC50 [2]: 7.77 | pIC50 [3]: 8.49 | pIC50 [4]: 8.52 | pIC50 [5]: 7.89 | pIC50 [6]: 8.67 | pIC50 [7]: 8.26 | pIC50 [8]: 8.46 | pIC50 [9]: 7.68 | pIC50 [10]: 9.04 | pIC50 [11]: 8.65 | pIC50 [12]: 8.05 | pIC50 [13]: 8.55 | pIC50 [14]: 8.47 | pIC50 [15]: 8.55 | pIC50 [16]: 8.79 | pIC50 [17]: 8.19 | pIC50 [18]: 7.64 | pIC50 [19]: 8.93 | pIC50 [20]: 7.24 | pIC50 [21]: 8.70 | pIC50 [22]: 8.67 | pIC50 [23]: 8.70 | pIC50 [24]: 8.57 | pIC50 [25]: 8.65 | pIC50 [26]: 8.10 | pIC50 [27]: 8.97 | pIC50 [28]: 8.76 | pIC50 [29]: 8.58 | pIC50 [30]: 8.86 | pIC50 [31]: 8.25 | pIC50 [32]: 8.40 | pIC50 [33]: 8.72 | pIC50 [34]: 6.86 | pIC50 [35]: 8.47 | pIC50 [36]: 8.47 | pIC50 [37]: 8.48 | pIC50 [38]: 8.65 | pIC50 [39]: 8.13 | pIC50 [40]: 7.96 | pIC50 [41]: 7.82 | pIC50 [42]: 9.03 | pIC50 [43]: 8.61 | pIC50 [44]: 8.66
Structure (SMILES): CC(=O)O[C@@]12CO[C@@H]1C[C@H](O)[C@@]1(C)C(=O)[C@H](O)C3=C(C)[C@@H](OC(=O)[C@H](O)[C@@H](NC(=O)OC(C)(C)C)c4ccccc4)C[C@@](O)([C@@H](OC(=O)c4ccccc4)[C@H]21)C3(C)C [docetaxel]
